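Briefly, cells in 96-well plates were exposed to five compound concentrations for 48 h, and endpoints were estimated by linear interpolation. GI50 is the concentration that inhibits growth by half.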 The source made the active and inactive calls. No stated cut-off is given here; in the data, active = GI50 up to about 1.1 µM and inactive = higher.
Assays:
Experiment in all cases: DTP human tumour cell line panel, 48 h
[1] = system: HCT-116
[2] = system: OVCAR-8
[3] = system: LOX IMVI
[4] = system: SR
[5] = system: KM12
[6] = system: SW-620
[7] = system: SN12C
[8] = system: SF-539
[9] = system: NCI-H522
[10] = system: Hs-578T
[11] = system: RXF 393
[12] = system: SF-268
[13] = system: K562
[14] = system: NCI-H460
[15] = system: SK-MEL-5
[16] = system: PC-3
[17] = system: A549
[18] = system: SNB-75
[19] = system: OVCAR-3
[20] = system: 786-0

SMILES	GI50 [1]	GI50 [2]	GI50 [3]	GI50 [4]	GI50 [5]	GI50 [6]	GI50 [7]	GI50 [8]	GI50 [9]	GI50 [10]	GI50 [11]	GI50 [12]	GI50 [13]	GI50 [14]	GI50 [15]	GI50 [16]	GI50 [17]	GI50 [18]	GI50 [19]	GI50 [20]
COc1cc2c(/C=C3/C(=O)Nc4ccccc43)c(Cl)[nH]c2cc1C	0.0597 µM (active)	0.0869 µM (active)	0.0631 µM (active)	0.0414 µM (active)	0.0329 µM (active)	0.0855 µM (active)	0.0845 µM (active)	0.0234 µM (active)	0.0446 µM (active)	0.0427 µM (active)	0.311 µM (active)	0.0644 µM (active)	0.0601 µM (active)	0.0716 µM (active)	0.0467 µM (active)	0.0435 µM (active)	0.0619 µM (active)	0.192 µM (active)	0.0434 µM (active)	0.0605 µM (active)
CC(NC(=O)C(Cc1ccc(OC(=O)c2ccccc2)cc1)NC(=O)OC(C)(C)C)C(=O)NCC(=O)NC(Cc1ccccc1)C(=O)NN (stereo not given)	43.1 µM (inactive)	65 µM (inactive)	18.1 µM (inactive)	13.6 µM (inactive)	80.7 µM (inactive)	29.3 µM (inactive)	> 10 µM (inactive)	> 100 µM (inactive)	29.6 µM (inactive)	32.7 µM (inactive)	34.8 µM (inactive)	54.6 µM (inactive)	20 µM (inactive)	49.2 µM (inactive)	34.7 µM (inactive)	24.2 µM (inactive)	> 100 µM (inactive)	25.6 µM (inactive)	57.9 µM (inactive)	> 100 µM (inactive)
O=C(CCC(=O)c1ccc(Cl)cc1)NO	> 100 µM (inactive)	> 100 µM (inactive)	> 100 µM (inactive)	> 100 µM (inactive)	> 100 µM (inactive)	> 100 µM (inactive)	> 100 µM (inactive)	> 100 µM (inactive)	> 100 µM (inactive)	> 100 µM (inactive)	> 100 µM (inactive)	> 100 µM (inactive)	> 100 µM (inactive)	> 100 µM (inactive)	> 100 µM (inactive)	> 100 µM (inactive)	> 100 µM (inactive)	> 100 µM (inactive)	> 100 µM (inactive)	> 100 µM (inactive)
CC1=NN(C(=O)CC(=O)Nc2ccccc2C)C(=O)C1/N=N/c1ccc(C(=O)O)cc1 (stereo not given)	> 100 µM (inactive)	> 100 µM (inactive)	79.3 µM (inactive)	43.4 µM (inactive)	> 100 µM (inactive)	> 100 µM (inactive)	> 100 µM (inactive)	> 100 µM (inactive)	> 100 µM (inactive)	68.9 µM (inactive)	> 100 µM (inactive)	> 100 µM (inactive)	> 100 µM (inactive)	> 100 µM (inactive)	> 100 µM (inactive)	> 100 µM (inactive)	> 100 µM (inactive)	70.5 µM (inactive)	> 100 µM (inactive)	> 100 µM (inactive)
CCOC1C=CCCO1 (stereo not given)	> 100 µM (inactive)	> 100 µM (inactive)	> 100 µM (inactive)	> 100 µM (inactive)	> 100 µM (inactive)	> 100 µM (inactive)	> 100 µM (inactive)	> 100 µM (inactive)	> 100 µM (inactive)	> 100 µM (inactive)	> 100 µM (inactive)	> 100 µM (inactive)	> 100 µM (inactive)	> 100 µM (inactive)	> 100 µM (inactive)	> 100 µM (inactive)	> 100 µM (inactive)	> 100 µM (inactive)	> 100 µM (inactive)	> 100 µM (inactive)
Cc1cc(=O)oc2c(C)c3oc(CBr)c(Br)c3cc12	26.9 µM (inactive)	24.7 µM (inactive)	12.6 µM (inactive)	27.7 µM (inactive)	26.8 µM (inactive)	16.9 µM (inactive)	20.1 µM (inactive)	37.6 µM (inactive)	14.7 µM (inactive)	44.1 µM (inactive)	19.8 µM (inactive)	25.6 µM (inactive)	19.6 µM (inactive)	18.9 µM (inactive)	18.2 µM (inactive)	40.4 µM (inactive)	17.4 µM (inactive)	22.5 µM (inactive)	> 100 µM (inactive)	14.4 µM (inactive)
CCCC[N+](CCCC)(CCCC)CCCC.O=S(=O)([O-])ON=C1c2ccccc2-c2ccccc21	> 100 µM (inactive)	> 100 µM (inactive)	> 100 µM (inactive)	> 100 µM (inactive)	> 100 µM (inactive)	> 100 µM (inactive)	> 100 µM (inactive)	> 100 µM (inactive)	47.2 µM (inactive)	> 100 µM (inactive)	> 100 µM (inactive)	> 100 µM (inactive)	> 100 µM (inactive)	> 100 µM (inactive)	61.5 µM (inactive)	> 100 µM (inactive)	> 100 µM (inactive)	> 100 µM (inactive)	> 100 µM (inactive)	> 100 µM (inactive)
COC1=C(Br)[C@H](O)[C@@]2(C=C1Br)CC(C(=O)NCCCCCNC(=N)N)=NO2 [APLYSINAMISINE II]	> 10 µM (inactive)	> 10 µM (inactive)	> 10 µM (inactive)	6.87 µM (inactive)	> 10 µM (inactive)	> 10 µM (inactive)	> 10 µM (inactive)	> 10 µM (inactive)	> 10 µM (inactive)	> 10 µM (inactive)	> 10 µM (inactive)	> 10 µM (inactive)	> 10 µM (inactive)	> 10 µM (inactive)	> 10 µM (inactive)	> 10 µM (inactive)	> 10 µM (inactive)	6.79 µM (inactive)	> 10 µM (inactive)	> 10 µM (inactive)
COc1ccc(/C=C2\CCC(CNc3ccc(S(N)(=O)=O)cc3)C2=O)cc1 (stereo not given)	8.65 µM (inactive)	18 µM (inactive)	9.89 µM (inactive)	1.9 µM (inactive)	11.3 µM (inactive)	1.95 µM (inactive)	18.6 µM (inactive)	25.7 µM (inactive)	4.52 µM (inactive)	43 µM (inactive)	20.4 µM (inactive)	22.5 µM (inactive)	1.51 µM (inactive)	31.3 µM (inactive)	16.3 µM (inactive)	21.9 µM (inactive)	> 82.8 µM (inactive)	32.1 µM (inactive)	9.04 µM (inactive)	4.9 µM (inactive)
O=C1/C(=C/c2ccc(O)cc2)CC/C1=C\c1ccc(O)cc1	> 100 µM (inactive)	> 81.5 µM (inactive)	> 100 µM (inactive)	3.37 µM (inactive)	> 100 µM (inactive)	> 100 µM (inactive)	> 64.6 µM (inactive)	22.6 µM (inactive)	49.4 µM (inactive)	> 100 µM (inactive)	> 100 µM (inactive)	> 95.1 µM (inactive)	> 100 µM (inactive)	44.7 µM (inactive)	> 100 µM (inactive)	59.6 µM (inactive)	> 95.1 µM (inactive)	> 100 µM (inactive)	> 100 µM (inactive)	> 41 µM (inactive)
COc1ccc(-c2nc(N)c3ncn(C4OC(CO)C(O)C4O)c3n2)cc1 (stereo not given)	> 100 µM (inactive)	> 100 µM (inactive)	> 100 µM (inactive)	> 100 µM (inactive)	> 100 µM (inactive)	> 100 µM (inactive)	> 100 µM (inactive)	> 100 µM (inactive)	62.8 µM (inactive)	> 100 µM (inactive)	> 100 µM (inactive)	> 100 µM (inactive)	> 100 µM (inactive)	> 100 µM (inactive)	> 100 µM (inactive)	> 100 µM (inactive)	> 100 µM (inactive)	> 100 µM (inactive)	> 100 µM (inactive)	> 100 µM (inactive)
